The record followed here is ChEMBL document CHEMBL5131396, “Structure-activity relationship for the folding intermediate-selective inhibition of DYRK1A” (Eur J Med Chem, 2022).

Series [1] addresses T1, Dual specificity tyrosine-phosphorylation-regulated kinase 1A (Homo sapiens, UniProt Q13627). The experiment in a line: Inhibition of FLAG-tagged full-length human recombinant DYRK1A (127 to 485 residues) expressed in Escherichia coli assessed as reduction in autophosphorylation at Ser97 residue by Western blot analysis. (In general: A western blot detects proteins with antibodies after separation by electrophoresis.)

Another series deals with HEK293. The series is described as follows: Cytotoxicity against HEK293 cells up to 8 uM. The format is toxicity, cell-based. Conditions: human, hek293, 8 µM.
Series [2] addresses T1, Dual specificity tyrosine-phosphorylation-regulated kinase 1A. The experiment in a line: Inhibition of FLAG-tagged full-length human recombinant DYRK1A (127 to 485 residues) expressed in Escherichia coli assessed as reduction in phosphorylated tyrosine level by Western blot analysis. Conditions: dose <= 32.0 µM, DDE = dose-dependent effect.
Series [3] has as its target Serine/threonine-protein kinase D1 (Homo sapiens) (UniProt Q15139). The series is described as follows: Inhibition of recombinant PKD1 in HEK293 cells at 32 uM using DYRKtide peptide as substrate incubated for 45 mins in presence of ATP by Kinase-Glo Luminescent kinase assay. (In general: In Kinase-Glo more light means more ATP remaining.)
Series [4] concerns the target Rho-associated protein kinase 1 (Homo sapiens) (UniProt Q13464). The series is described as follows: Inhibition of ROCK1 in HEK293 cells at 1 to 2 uM measured after 4 days by Western blot analysis. It is filed as cell-based. Conditions: dose 1-2 µM, time 4.0 day.
Series [5] deals with Serine/threonine-protein kinase D1 (Homo sapiens) (UniProt Q15139). The experiment in a line: Inhibition of PKD1 in HEK293 cells at 1 to 2 uM measured after 4 days by Western blot analysis. Conditions: dose 1-2 µM, time 4.0 day.
Serine/threonine-protein kinase D1 (Homo sapiens), sequence (Q15139 whole entry, looked up, the tested form may be a part): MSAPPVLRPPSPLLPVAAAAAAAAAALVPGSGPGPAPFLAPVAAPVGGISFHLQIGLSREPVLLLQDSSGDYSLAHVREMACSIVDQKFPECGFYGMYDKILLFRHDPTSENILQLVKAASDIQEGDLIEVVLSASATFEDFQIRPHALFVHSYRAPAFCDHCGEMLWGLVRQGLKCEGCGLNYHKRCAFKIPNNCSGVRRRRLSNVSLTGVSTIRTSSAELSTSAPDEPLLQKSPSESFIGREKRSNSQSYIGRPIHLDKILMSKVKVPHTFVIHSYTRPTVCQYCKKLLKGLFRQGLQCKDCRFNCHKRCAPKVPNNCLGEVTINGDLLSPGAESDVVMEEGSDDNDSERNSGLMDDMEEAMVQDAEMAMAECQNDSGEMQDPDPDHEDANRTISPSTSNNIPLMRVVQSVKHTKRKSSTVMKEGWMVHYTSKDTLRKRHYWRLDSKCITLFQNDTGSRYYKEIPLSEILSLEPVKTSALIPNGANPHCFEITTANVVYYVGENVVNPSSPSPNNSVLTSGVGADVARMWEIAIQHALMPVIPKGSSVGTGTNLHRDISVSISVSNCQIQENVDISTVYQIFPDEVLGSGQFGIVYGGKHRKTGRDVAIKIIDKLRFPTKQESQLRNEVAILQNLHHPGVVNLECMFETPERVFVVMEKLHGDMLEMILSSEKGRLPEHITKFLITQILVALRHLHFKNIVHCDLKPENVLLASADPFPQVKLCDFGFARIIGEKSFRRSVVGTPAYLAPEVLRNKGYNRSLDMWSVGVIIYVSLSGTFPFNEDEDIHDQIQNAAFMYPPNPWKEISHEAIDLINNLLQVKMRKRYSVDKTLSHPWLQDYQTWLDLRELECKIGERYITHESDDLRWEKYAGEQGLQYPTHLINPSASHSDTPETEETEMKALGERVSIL
In series [6] the target is T1, Dual specificity tyrosine-phosphorylation-regulated kinase 1A. The experiment in a line: Induction of degradation of endogenous FLAG-tagged full-length human recombinant DYRK1A (127 to 485 residues) expressed in Escherichia coli in HEK293 cells assessed as decrease in protein level measured after 4 days by Western blot analysis. Conditions: dose <= 8.0 µM, time 4.0 day, DDE = dose-dependent effect.

For series [7] the target is unchanged. The experiment in a line: Inhibition of FLAG-tagged full-length human recombinant DYRK1A (127 to 485 residues) expressed in Escherichia coli assessed as reduction in TAU intermolecular phosphorylation incubated for 30 mins by Western blot analysis.

Calls of active or inactive are those of the source. The calls are words filed in the database; no cut-off is given here.

Rho-associated protein kinase 1 (Homo sapiens), sequence (Q13464 2-1354 limits assumed): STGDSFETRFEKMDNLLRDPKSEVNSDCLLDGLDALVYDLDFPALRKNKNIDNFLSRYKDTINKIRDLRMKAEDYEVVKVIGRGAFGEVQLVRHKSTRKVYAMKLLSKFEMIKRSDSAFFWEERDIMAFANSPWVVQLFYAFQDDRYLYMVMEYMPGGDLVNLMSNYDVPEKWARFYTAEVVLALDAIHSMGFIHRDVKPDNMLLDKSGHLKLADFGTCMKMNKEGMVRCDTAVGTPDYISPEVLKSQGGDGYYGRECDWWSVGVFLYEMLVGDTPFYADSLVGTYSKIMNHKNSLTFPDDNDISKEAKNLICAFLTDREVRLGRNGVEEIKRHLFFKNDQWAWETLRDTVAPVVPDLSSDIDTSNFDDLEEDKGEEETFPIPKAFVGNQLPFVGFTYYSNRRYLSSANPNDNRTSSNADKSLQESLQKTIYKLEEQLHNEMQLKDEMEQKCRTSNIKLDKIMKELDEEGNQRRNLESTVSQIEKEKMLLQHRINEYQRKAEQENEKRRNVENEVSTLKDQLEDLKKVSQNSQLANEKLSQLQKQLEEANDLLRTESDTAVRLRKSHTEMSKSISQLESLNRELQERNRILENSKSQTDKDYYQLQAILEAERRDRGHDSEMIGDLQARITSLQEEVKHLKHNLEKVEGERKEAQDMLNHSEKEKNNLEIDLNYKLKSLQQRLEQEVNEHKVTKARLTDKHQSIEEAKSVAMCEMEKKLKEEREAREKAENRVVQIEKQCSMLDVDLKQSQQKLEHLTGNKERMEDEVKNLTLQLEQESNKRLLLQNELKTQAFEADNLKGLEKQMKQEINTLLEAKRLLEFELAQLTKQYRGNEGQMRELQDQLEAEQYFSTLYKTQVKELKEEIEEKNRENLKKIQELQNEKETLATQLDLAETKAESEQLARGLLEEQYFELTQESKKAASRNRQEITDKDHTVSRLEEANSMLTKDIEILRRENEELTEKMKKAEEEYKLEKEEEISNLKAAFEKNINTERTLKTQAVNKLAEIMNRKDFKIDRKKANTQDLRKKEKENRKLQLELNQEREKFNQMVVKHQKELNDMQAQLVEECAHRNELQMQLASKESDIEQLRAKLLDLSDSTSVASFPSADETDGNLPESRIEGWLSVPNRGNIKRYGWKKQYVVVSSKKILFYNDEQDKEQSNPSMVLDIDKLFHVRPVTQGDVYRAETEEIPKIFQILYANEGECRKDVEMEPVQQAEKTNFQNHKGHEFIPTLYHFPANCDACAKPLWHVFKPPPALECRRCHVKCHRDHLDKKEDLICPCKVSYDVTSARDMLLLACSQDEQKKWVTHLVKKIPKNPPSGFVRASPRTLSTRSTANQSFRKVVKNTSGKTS

For the molecule `COc1ccc(/C=C2\SC(=S)NC2=O)cc1/C=C/C1CCCCC1`, the IC50 (as a rule, the concentration needed to halve the response being measured) in series [1] is more than 32 µM.
As to `COc1ccc(/C=C2\SC(=S)NC2=O)cc1C#C[Si](C)(C)C`, in the series on HEK293, the Activity entry was “Non-Toxic”. In addition, in series [2], the inhibition entry was “Dde”. For the same molecule, in series [3], the inhibition result is “Active”.
For the molecule `COc1ccc(/C=C2\SC(=S)NC2=O)cc1/C=C/[Si](C)(C)C`, the IC50 in series [1] was more than 32 µM.
For the molecule `COc1ccc(/C=C2\SC(=S)NC2=O)cc1/C=C/C(C)(C)C`, in series [1], the IC50 is more than 32 µM.
Take `COc1ccc(/C=C2\SC(=S)NC2=O)cc1C#C[Si](C)(c1ccccc1)c1ccccc1`: the Activity result with HEK293 is “Non-Toxic”; in series [6], “Dde”. In addition, in series [1], the IC50 is 0.53 µM. Further, the inhibition result in series [4], in series [5] and in series [3] was “Active” in each case. Also, the inhibition entry in series [2] is “Dde”.
In the case of `CCOc1cc(/C=C2\SC(=S)NC2=O)ccc1O`, the inhibition result in series [7] was “Active”.
